Literature values in US8940506B2, “High-sensitive fluorescent energy transfer assay using fluoresent amino acids and fluorescent proteins” (The Regents of the University of California, priority 2008, dated 2015).

Test system: cancer cells
Settings: by disrupting the interaction of ubiquitin E3 ligase MDM2 and its substrate p53

## COc1ccc(C2=N[C@@H](c3ccc(Cl)cc3)[C@@H](c3ccc(Cl)cc3)N2C(=O)N2CCNC(=O)C2)c(OC(C)C)c1 [Nutlin-3]
  apoptosis and growth inhibition of cancer cells: induce apoptosis and growth inhibition of cancer cells
